According to ChEMBL document CHEMBL1153838, “Optimization of the dosage of flucytosine in combination with amphotericin B for disseminated candidiasis: a pharmacodynamic rationale for reduced dosing” (2007):
In brackets after ≈: the same amount, converted by molar mass.

Columns and labels:
Assay type in all cases: functional
Candida [1] = assay: Antifungal activity against Candida species infected patients assessed as residual fungal burden at 0.6 mg/kg/day administered as single dose
Candida [2] = assay: Antifungal activity against Candida isolates
[3] = T>MIC in Candida species infected patients at 25 mg/kg/day administered as four divided doses
Candida [4] = assay: Antifungal activity against Candida species infected patients assessed as residual fungal burden at 0.3 mg/kg/day administered as single dose
Candida [5] = assay: Antifungal activity against Candida species infected patients assessed as residual fungal burden at 0.1 mg/kg/day administered as single dose
Candida albicans = assay: Antifungal activity against Candida albicans isolates by broth microdilution method
Candida [6] = assay: Antifungal activity against Candida isolates by CLSI methods

Row | Compound | log10CFU/g (Candida [1]) | MIC (Candida [2]) [µg/mL] | T>MIC [3] [%] | log10CFU/g (Candida [4]) | log10CFU/g (Candida [5]) | MIC (Candida albicans) [µg/mL] | MIC90 (Candida [6]) [µg/mL]
1 | C[C@@H]1[C@H](O)[C@@H](C)/C=C/C=C/C=C/C=C/C=C/C=C/C=C/[C@H](O[C@@H]2O[C@H](C)[C@@H](O)[C@H](N)[C@@H]2O)C[C@@H]2O[C@](O)(C[C@@H](O)C[C@@H](O)[C@H](O)CC[C@@H](O)C[C@@H](O)CC(=O)O[C@H]1C)C[C@H](O)[C@H]2C(=O)O [AMPHOTERICIN B] | 0.6 | ≤ 1 | 100 | 1 | 2.2 | – | –
2 | Nc1nc(=O)[nH]cc1F [FLUCYTOSINE] | – | – | – | – | – | 0.125 (≈ 0.968 µM) | 1 (≈ 7.75 µM)
